Experimental data taken from patent publication US10669273B2, “Use of aza-tryptanthrin derivatives as inhibitors of IDO1 and/or TDO” (Peking University, priority 2016, dated 2020).
Structures can show the parent of a compound that is named as a salt. Where two headings read alike, the source gives them in different places.

What was measured:
[1] = system: melanoma B16; assay: Melanoma B16 in mice experiment; type: in vivo, C57BL/6J mice; conditions: intragastric once daily, 10 days; CY-1-26 20 mg/kg, 1-MT 200 mg/kg
Protocol: The in vivo efficacy of compound was tested with C57BL/6J mice bearing melanoma B16. The intragastric administration was 20 mg/kg, and 1-MT was a positive control (200 mg/kg), which was once daily. The observation and measurement were started on the day of the first administration, and the relevant indicators were recorded. The tumor-bearing mice were sacrificed at the end of the experiment, and the tumor pieces were dissected and weighed.
The tumor-bearing mice were administered by continuous intragastric administration for 10 days. The body weight of the animals in the drug-administered group was slightly slower than that of the negative control group. The animals were in good condition and no obvious side effects were observed.
After 10 days of administration, the animals were euthanized, the subcutaneous tumors were dissected, weighed, and the animals were dissected for gross observation.

[2] = molecular target: IDO-1 (Homo sapiens (Human), UniProt P14902); assay: Indoleamine-2,3-dioxygenase 1 inhibitory activity (absorbance at 321 nm); type: biochemical
Protocol: Experimental method: IDO-1 can oxidatively cleave the indole ring of tryptophan to form N-formylkynurenine. Referring to the method in the literature (Eddy W. Yue, et al. J. Med. Chem. 2009, 52, 7364-7367), 20 nM IDO-1, 2 mM D-tryptophan, 20 mM ascorbic acid, 3.5M methyl blue and 0.2 mg/mL antioxidant enzyme were sequentially added to 50 mM potassium phosphate buffer at room temperature. Due to the formation of N-formylkynurenine, the reaction rate was recorded by the increasing absorbance of the solution at 321 nm. IC50 values were calculated using Prism GraphPad software.

[3] = molecular target: TDO (Homo sapiens (Human), UniProt P48775); assay: Tryptophan-2,3-dioxygenase inhibitory activity (absorbance at 321 nm); type: biochemical; conditions: read-out: TDO Inhibition rate
Protocol: Experimental method: TDO can oxidatively cleave the indole ring of tryptophan to form N-formylkynurenine. Referring to the method in the reference (Eddy W. Yue, et al. J. Med. Chem. 2009, 52, 7364-7367), a detection buffer containing 50 nM TDO, 10μM inhibitor, 200μM tryptophan, and the like were sequentially added thereto at room temperature. Due to the formation of N-formylkynurenine, the reaction rate was recorded by the increasing absorbance of the solution at 321 nm. IC50 values were calculated using Prism GraphPad software.

[4] = system: Lewis lung cancer; assay: Lewis lung cancer in mice, in vivo anti-tumor experiment; set-up: species or system C57BL/6J mice; conditions: intraperitoneal 20 mg/Kg, 11 days
Protocol: The observation and measurement were started on the day of the first administration, and the relevant indicators were recorded. The tumor-bearing mice were sacrificed at the end of the experiment, and the tumor pieces were dissected and weighed. The tumor-bearing mice were administered intraperitoneally for 11 days. […] After 11 days of continuous intraperitoneal injection of tumor-bearing mice, the animals were euthanized, the subcutaneous tumors were dissected, weighed, photographed, and the animals were dissected for gross observation.

[5] = system: melanoma B16; assay: Repeated verification, melanoma B16 in mice experiment; type: in vivo, C57BL/6J mice; conditions: intragastric 20 mg/kg once daily, 14 days
Protocol: The in vivo efficacy of compound was tested in three groups (6 in each group) of C57BL/6J mice bearing melanoma B16. CY-1-26 hydrochloride was intragastrically administered at 20 mg/kg (suspended in 0.5% sodium carboxymethyl cellulose solution), and 1-MT was a positive control (200 mg/kg, suspended in 0.5% sodium carboxymethyl cellulose solution), the blank control was 0.5% sodium carboxymethyl cellulose solution, all once daily dose. On the day of the first dose, the relevant indicators were observed, measured and recorded. At the end of the experiment, the tumor-bearing mice were sacrificed and the tumor pieces were dissected and weighed.
The tumor-bearing mice were administered by continuous intragastric administration for 14 days. The body weight of the animals in the drug-administered group was slightly slower than that of the negative control group. The animals were in good condition and no obvious side effects were observed.
After 14 days of administration, the animals were euthanized, the subcutaneous tumors were dissected, weighed, and the animals were dissected for gross observation.

[6] = system: T cells; conditions: cited from earlier work
[7] = system: TNF-α; conditions: concentration up to 20 μM; cited from earlier work
[8] = 20 nM IDO-1, 2 mM D-tryptophan, read-out: IDO-1 inhibitory activity, IC50
[9] = compound at 10 μM, 50 nM TDO, 200 μM tryptophan
[10] = Table 1, comparison with tryptanthrins 5a, 5b, 5c, 5i, read-out: Comparison of inhibitory activity of the IDO1, IC50

Chain of IDO-1 (P14902 whole entry): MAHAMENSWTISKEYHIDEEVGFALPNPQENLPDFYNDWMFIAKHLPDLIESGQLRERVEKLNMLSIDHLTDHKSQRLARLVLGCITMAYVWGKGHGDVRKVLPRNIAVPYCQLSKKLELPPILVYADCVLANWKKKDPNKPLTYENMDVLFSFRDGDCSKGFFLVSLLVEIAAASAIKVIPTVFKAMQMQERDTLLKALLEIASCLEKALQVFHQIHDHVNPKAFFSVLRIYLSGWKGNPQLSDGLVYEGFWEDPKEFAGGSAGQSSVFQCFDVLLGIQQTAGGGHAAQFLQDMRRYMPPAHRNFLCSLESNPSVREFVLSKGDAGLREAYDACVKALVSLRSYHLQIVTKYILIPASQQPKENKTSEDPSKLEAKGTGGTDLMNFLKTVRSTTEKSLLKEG
Chain of TDO (P48775 whole entry): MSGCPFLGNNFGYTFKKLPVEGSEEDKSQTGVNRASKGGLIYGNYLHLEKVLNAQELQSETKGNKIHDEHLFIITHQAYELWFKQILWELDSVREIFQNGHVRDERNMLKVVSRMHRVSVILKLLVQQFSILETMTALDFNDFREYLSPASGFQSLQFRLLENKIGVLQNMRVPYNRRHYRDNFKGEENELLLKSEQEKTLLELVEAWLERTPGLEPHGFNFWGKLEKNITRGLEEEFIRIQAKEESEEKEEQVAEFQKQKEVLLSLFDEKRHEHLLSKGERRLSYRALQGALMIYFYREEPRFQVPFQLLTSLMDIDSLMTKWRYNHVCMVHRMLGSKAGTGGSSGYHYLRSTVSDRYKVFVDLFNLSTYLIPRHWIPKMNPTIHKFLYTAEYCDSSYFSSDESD

For `Cn1cc(CC(N)C(=O)O)c2ccccc21` (centres unmarked) [Compound 1-MT, reference compound], the “tumor inhibition rate (tumor weight)” value [1] was 26.3%.
`CON=C1c2cc([N+](=O)[O-])ccc2-n2c1nc1ncccc1c2=O` [CY-1-25, 11-(methoxyimino)-9-nitropyrido[2′,3′: 4,5]pyrimido[1,2-α]indol-5 (11H)-one] gave an IC50 [2, 8] of 0.11 to 1 µM.
In the case of `COc1ccc2c(c1)C(=O)c1nc3ncccc3c(=O)n1-2` [CY-1-6, 9-methoxypyrido[2′,3′:4,5]pyrimido[1,2-c]indole-5,11-dione], the IC50 [2, 8] is reported as 0.11 to 1 µM.
Compound `O=C1c2cc([N+](=O)[O-])ccc2-n2c1nc1ncccc1c2=O` [CY-1-4, 9-nitropyridine[2′,3′:4,5]pyrimido[1,2-c]indole-5,11-dione] has an inhibition at 10 µM [3] of 97%.
For `CN(C)CCON=C1c2cc([N+](=O)[O-])ccc2-n2c1nc1ncccc1c2=O` [CY-1-17, 11-((2-(dimethylamino)ethoxy)imino)-9-nitropyrido[2′,3′:4,5]pyrimido[1,2-α]indol-5(11H)-one], the “tumor inhibition rate (tumor weight)” value [4] was 51.8% and the inhibition at 10 µM [3, 9] was 64%.
Compound `O=C1c2cc(Cl)ccc2-n2c1nc1ncccc1c2=O` [CY-1-5, 9-chloropyrido[2′,3′:4,5]pyrimido[1,2-c]indole-5,11-dione] has an inhibition at 10 µM [3, 9] of 35%.
For `CCON=C1c2cc([N+](=O)[O-])ccc2-n2c1nc1ncccc1c2=O` [CY-1-26 hydrochloride], the “tumor inhibition rate (tumor weight)” value [5] was 46.0%.
Work on `O=C1c2cc(F)ccc2-n2c1nc1ncccc1c2=O` [CY-1-2, 9-fluoropyrido[2′,3′:4,5]pyrimido[1,2-c]indole-5,11-dione] yielded an inhibition at 10 µM [3, 9] of 44%.
For `C=CCON=C1c2cc([N+](=O)[O-])ccc2-n2c1nc1ncccc1c2=O` [CY-1-27, 11-((allyloxy)imino)-9-nitropyrido[2′,3′:4,5]pyrimido[1,2-α]indol-5(11H)-one], the IC50 [2, 8] was 1.1 to 10 µM.
For `O=P1(N(CCCl)CCCl)NCCCO1` (centres unmarked) [cyclophosphamide, reference compound], the “tumor inhibition rate (tumor weight)” value [4] was 29.9%.
With `O=C1c2cc(Cl)ccc2-n2c1nc1cnccc1c2=O` [CY-1-10, 9-chloropyrido[3′,4′: 4,5]pyrimido[1,2-α]indole-5,11-dione] the inhibition at 10 µM [3] was 8% and the IC50 [2, 8] was 0.11 to 1 µM.
With `Cc1ccc2c(c1)C(=O)c1nc3ncccc3c(=O)n1-2` [CY-1-7, 9-methylpyrido[2′,3′:4,5]pyrimido[1,2-c]indole-5,11-dione] the IC50 [2, 8] was 0.11 to 1 µM and the IC50 [2, 10] was 0.1 to 1 µM.
In the case of `CCON=C1c2cc([N+](=O)[O-])ccc2-n2c1nc1ncccc1c2=O` [CY-1-26, 11-(ethoxyimino)-9-nitropyrido[2′,3′:4,5]pyrimido[1,2-α]indol-5(11H)-one], the “tumor inhibition rate (tumor weight)” value [1] is reported as 33.0% and the IC50 [2, 8] is reported as 1.1 to 10 µM.
Compound `O=c1c2cccnc2nc2n1-c1ccccc1C2=NO` [CY-1-12, 11-(hydroxyimino)pyrido[2′,3′:4,5]pyrimido[1,2-α]indol-5(11H)-one] has an IC50 [2, 8] of 1.1 to 10 µM.
In the case of `O=c1c2cccnc2nc2n1-c1ccc([N+](=O)[O-])cc1C2=NOCCO` [CY-1-21, 11-((2-hydroxyethoxy)imino)-9-nitropyrido[2′,3′:4,5]pyrimido[1,2-α]indol-5(11H)-one], the IC50 [2, 8] is reported as 0.11 to 1 µM.
For `O=C1c2ccccc2-n2c1nc1ncccc1c2=O` [CY-1-1, pyrido[2′,3′:4,5]pyrimido[1,2-α]indole-5,11-dione], the IC50 [2, 8] was 0.11 to 1 µM and the IC50 [2, 10] was 0.1 to 1 µM.
In the case of `O=C1c2cc(F)ccc2-n2c1nc1ccccc1c2=O`, the “proliferation of T cells” value [6] is given as “can promote the proliferation of T cells”.
Compound `O=C1c2ccccc2-n2c1nc1cnccc1c2=O` [CY-1-8, pyrido[3′,4′:4,5]pyrimido[1,2-c]indole-5,11-dione] has an IC50 [2, 8] of 0.11 to 1 µM and an IC50 [2, 10] of 0.1 to 1 µM.
For `O=C1c2cc([N+](=O)[O-])ccc2-n2c1nc1cccnc1c2=O` [8-nitro-1-aza-tryptanthrin], the “activity in production of TNF-α” value [7] is given as “did not exhibit activity”.
For `CN(C)CCON=C1c2cc(F)ccc2-n2c1nc1ncccc1c2=O` [CY-1-19, 11-((2-(dimethylamino)ethoxy)imino)-9-fluoropyrido[2′,3′:4,5]pyrimido[1,2-α]indol-5(11H)-one], the IC50 [2, 8] was 0.11 to 1 µM.
Work on `Cc1ccc2c(c1)C(=NO)c1nc3ncccc3c(=O)n1-2` [CY-1-14, 11-(hydroxyimino)-9-methylpyrido[2′,3′: 4,5]pyrimido[1,2-α]indole-5 (11H)-one] yielded an IC50 [2, 8] of 1.1 to 10 µM.
In the case of `O=c1c2cccnc2nc2n1-c1ccc([N+](=O)[O-])cc1C2=NOS(=O)(=O)O` [CY-1-24, (((9-nitro-5-oxopyrido[2′,3′:4,5]pyrimido[1,2-α]indol-11(5H)-ylidene)amino)oxy) sulfonic acid], the IC50 [2, 8] is reported as 0.11 to 1 µM.
`O=C1c2cc(F)ccc2-n2c1nc1cnccc1c2=O` [CY-1-11, 9-fluoropyrido[3′,4′:4,5]pyrimido[1,2-α]indole-5,11-dione] showed an IC50 [2, 8] of 0.11 to 1 µM and an IC50 [2, 10] of 0.1 to 1 µM.
`CN(C)CCON=C1c2cc(Cl)ccc2-n2c1nc1ncccc1c2=O` [CY-1-18, 9-chloro-11-((2-(dimethylamino)ethoxy)imino)pyrido[2′,3′:4,5]pyrimido[1,2-α]indol-5(11H)-one] gave an IC50 [2, 8] of 0.11 to 1 µM.
Work on `CN(C)CCON=C1c2ccccc2-n2c1nc1ncccc1c2=O` [CY-1-16, 11-((2-(dimethylamino)ethoxy)imino)pyrido[2′,3′:4,5]pyrimido[1,2-α]indole-5(11H)-one] yielded an IC50 [2, 8] of 0.11 to 1 µM.
In the case of `COc1ccc2c(c1)C(=NNC(=S)N(C)C)c1nc3ncccc3c(=O)n1-2` [CY-1-30, 2-(9-methoxy-5-oxopyrido[2′,3′:4,5]pyrimido[1,2-α]indol-11(5H)-ylidene)-N,N-di methyl-hydrazine-1-carbothioamide], the IC50 [2, 8] is reported as 1.1 to 10 µM.
`CN(C)CCCON=C1c2cc(Cl)ccc2-n2c1nc1ncccc1c2=O` [CY-1-20, 9-chloro-11-((3-(dimethylamino)propoxy)imino)pyrido[2′,3′:4,5]pyrimido[1,2-α]indol-5(11H)-one] showed an IC50 [2, 8] of 1.1 to 10 µM.
Compound `O=c1c2cccnc2nc2n1-c1ccc(Cl)cc1C2=NO` [CY-1-13, 9-chloro-11-(hydroxyimino)pyrido[2′,3′:4,5]pyrimido[1,2-α]indole-5(11H)-one] has an inhibition at 10 µM [3, 9] of 6% and an IC50 [2, 8] of 0.11 to 1 µM.
`NC(=S)NN=C1c2cc([N+](=O)[O-])ccc2-n2c1nc1ncccc1c2=O` [CY-1-29, 2-(9-nitro-5-oxopyrido[2′,3′:4,5]pyrimido[1,2-c]indol-11(5H)-ylidene)hydrazine-1-carbothioamide] showed an inhibition at 10 µM [3, 9] of 93%.
`N=C(N)NN=C1c2cc([N+](=O)[O-])ccc2-n2c1nc1ncccc1c2=O` [CY-1-23, 2-(9-nitro-5-oxopyrido[2′,3′:4,5]pyrimido[1,2-c]indol-11(5H)-ylidene)hydrazine-1-carboximidamide] gave an inhibition at 10 µM [3] of 86%.
`COc1ccc2c(c1)C(=O)c1nc3cnccc3c(=O)n1-2` [CY-1-9, 9-methoxypyrido[3′,4′:4,5]pyrimido[1,2-c]indole-5,11-dione] gave an IC50 [2, 8] of 1.1 to 10 µM.
In the case of `COc1ccc2c(c1)C(=NO)c1nc3ncccc3c(=O)n1-2` [CY-1-15, 11-(hydroxyimino)-9-methoxypyrido[2′,3′:4,5]pyrimido[1,2-α]indole-5(11H)-one], the IC50 [2, 8] is reported as 1.1 to 10 µM.
`O=C1c2cc(OC(F)(F)F)ccc2-n2c1nc1ncccc1c2=O` [CY-1-3, 9-(trifluoromethoxy)pyrido[2′,3′:4,5]pyrimido[1,2-c]indole-5,11-dione] gave an inhibition at 10 µM [3, 9] of 16%.
